Measurements from ChEMBL document CHEMBL1133779, “A refined 3-dimensional QSAR of cytochrome P450 2C9: computational predictions of drug interactions” (J Med Chem, 2000).

target: T1, Cytochrome P450 2C9 (Homo sapiens, UniProt P11712); assay: Binding affinity measured on human cytochrome P450 2C9 (CYP2C9) enzyme
T1 sequence (P11712 whole entry): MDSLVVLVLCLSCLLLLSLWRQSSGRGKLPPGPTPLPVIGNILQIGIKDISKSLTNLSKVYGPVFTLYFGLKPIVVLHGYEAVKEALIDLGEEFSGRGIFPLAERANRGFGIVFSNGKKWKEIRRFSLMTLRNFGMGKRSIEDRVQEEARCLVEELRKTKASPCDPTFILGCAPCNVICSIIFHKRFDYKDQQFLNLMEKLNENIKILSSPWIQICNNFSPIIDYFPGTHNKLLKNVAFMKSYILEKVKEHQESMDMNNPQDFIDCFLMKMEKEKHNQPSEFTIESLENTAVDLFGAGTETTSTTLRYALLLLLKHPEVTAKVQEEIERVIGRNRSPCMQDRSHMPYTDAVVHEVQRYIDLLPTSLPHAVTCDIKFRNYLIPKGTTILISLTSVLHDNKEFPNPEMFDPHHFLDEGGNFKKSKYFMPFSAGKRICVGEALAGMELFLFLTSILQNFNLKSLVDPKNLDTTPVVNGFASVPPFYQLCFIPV

| Ki [µM] | Compound |
| --- | --- |
| 2.4 | CC(=O)c1ccc(S(=O)(=O)Nc2ccnn2-c2ccccc2)cc1 |
| 45 | CC(C(=O)O)c1ccc(C(=O)c2cccs2)cc1 (stereo unspecified) [SUPROFEN] |
| 18 | C#Cc1ccc(C2(c3ccccc3)NC(=O)NC2=O)cc1 (stereo unspecified) |
| 25 | C#Cc1ccc(S(=O)(=O)NC(=O)NCc2ccccc2)cc1 |
| 6 | O=S(=O)(Nc1ccnn1-c1ccccc1)c1ccc(O)cc1 |
| 2 | O=S(=O)(Nc1ccnn1-c1ccccc1)c1ccccc1 |
| 7 | C#Cc1ccc(S(=O)(=O)NC(=O)Nc2ccccc2)cc1 |
| 2 | O=C(O)Cc1ccccc1Nc1cc(Cl)ccc1Cl |
| 3 | C#Cc1ccc(S(=O)(=O)Nc2cc(C)on2)cc1 |
| 21 | COc1oc2ccccc2c(=O)c1[C@@H](CC(C)=O)c1ccccc1 |
| 15 | Cc1ccc(C)c(OCC(C)(C)C(=O)O)c1 |

Continued, compound first:

| Compound | Ki [µM] |
| --- | --- |
| C#Cc1ccc(S(=O)(=O)NC(=O)NCCCC)cc1 | 18 |
| C#Cc1ccc(S(=O)(=O)NC(=O)NCC(C)C)cc1 | 48 |

target: T1, Cytochrome P450 2C9; assay: Binding affinity for human Cytochrome P450 2C9; type: ADME

| Ki [µM] | Compound |
| --- | --- |
| 29 | COc1oc2ccccc2c(=O)c1[C@H](CC(C)=O)c1ccccc1 |

target: T1, Cytochrome P450 2C9; assay: Binding affinity was measured on Cytochrome P450 2C9; type: ADME

| Compound | Ki [µM] |
| --- | --- |
| CC[C@H](c1ccccc1)c1c(O)oc2ccccc2c1=O (stereo in doubt; 9) | 18 |
| CO[C@]1(C)C[C@@H](c2ccccc2)c2c(c3ccccc3oc2=O)O1 | 20 |
| CO[C@@]1(C)C[C@@H](c2ccccc2)c2c(c3ccccc3oc2=O)O1 (stereo in doubt; 4) | 7 |
| COc1c([C@H](CC(C)=O)c2ccccc2)c(=O)oc2ccccc12 (stereo in doubt; 15) | 2.4 |
| CC1(O)C[C@H](c2ccccc2)c2c(c3ccccc3oc2=O)O1 (stereo partly specified) | 7 |
| C#Cc1ccc2oc(O)c(C(C(C)=O)c3ccccc3)c(=O)c2c1 (stereo unspecified) | 1.5 |
| CC1(O)C[C@@H](c2ccccc2)c2c(c3ccccc3oc2=O)O1 (stereo partly specified) | 25 |
| COc1c([C@H](CC(C)=O)c2ccccc2)c(=O)oc2ccccc12 (stereo in doubt; 14) | 10 |
| C#Cc1ccc2c(=O)c(C(C(C)=O)c3ccccc3)c(O)oc2c1 (stereo unspecified) | 1.1 |
| CC[C@@H](c1ccccc1)c1c(OC)c2ccccc2oc1=O | 6 |
| [N-]=[N+]=Nc1ccc2oc(O)c(Cc3c(O)oc4ccc(N=[N+]=[N-])cc4c3=O)c(=O)c2c1 | 3 |
| CC[C@@H](c1ccccc1)c1c(OC)oc2ccccc2c1=O | 0.1 |
| C[C@H](O)C[C@@H](c1ccccc1)c1c(O)oc2ccccc2c1=O | 3 |
| CC[C@H](c1ccccc1)c1c(OC)c2ccccc2oc1=O | 13 |
| C[C@H](O)C[C@H](c1ccccc1)c1c(O)oc2ccccc2c1=O | 0.4 |
| CC[C@H](c1ccccc1)c1c(OC)oc2ccccc2c1=O | 14 |
| CO[C@@]1(C)C[C@H](c2ccccc2)c2c(c3ccccc3oc2=O)O1 | 1.5 |
| C[C@@H](O)C[C@H](c1ccccc1)c1c(O)oc2ccccc2c1=O | 3 |
| CO[C@@]1(C)C[C@@H](c2ccccc2)c2c(c3ccccc3oc2=O)O1 (stereo in doubt; 6) | 1.1 |
| C[C@@H](O)C[C@@H](c1ccccc1)c1c(O)oc2ccccc2c1=O | 0.1 |
| [N-]=[N+]=Nc1ccc(S(=O)(=O)Nc2ccnn2-c2ccccc2)cc1 | 0.4 |
| CC[C@H](c1ccccc1)c1c(O)oc2ccccc2c1=O (stereo in doubt; 8) | 0.5 |
